Assays:
HEP-G2 cells = experiment: SRB cytotoxicity assay, HEP-G2; type: cell-based; settings: Homo sapiens, HepG2, Liver
Method: (§1) In vitro cytotoxic activities of different compounds were assessed by using standard SRB assay in different cells. The absorbance of the treated and untreated cells was measured on a multi-well scanning spectrophotometer (Epoch Microplate Reader, Biotek, USA) at a wavelength of 510 nm. Percent growth inhibition was calculated by using the formula […].
(§2) SMAC mimetics promotes tumor cell selective cytotoxic effects. SW 620, HT 29, HCT 116 and VERO cells were treated with series of Smac mimetics at 10 μM dose for 48 hours and cytotoxicity was measured by SRB assay. As C6 had shown robust in-vitro cytotoxic effect against tumor cells but not to VERO cells, we determined IC50 value of C6 against different types of cancer cell lines. ICso values are represented in Table 2.

A172 cells = experiment: SRB cytotoxicity assay, A172; type: cell-based; settings: Homo sapiens, A 172, Brain
Method: as §1, §2

[1] = tested on: XIAP and cIAP1 protein expression; experiment: Immunoblots from tumor tissues (in vivo target engagement); design: species or system mice; settings: vs vehicle treated tumors
Method: Mice were randomly assigned to groups by a blinded independent investigator. Throughout the study, the tumor was measured with an electronic digital caliper at a regular interval, and the tumor volume was calculated using standard formula V=Π/6×a2×b, where ‘a’ is the short and ‘b’ is the long tumor axis. At the end of the experiment, mice were sacrificed, and subcutaneous tumors were dissected for further studies. Parts of harvested tumors were minced into small pieces with sterile forceps and scissors and homogenized for lysate preparation.

PANC-1 cells = experiment: SRB cytotoxicity assay, PANC-1; type: cell-based; settings: Homo sapiens, Pancreas
Method: as §1, §2

cancer cell lines = experiment: Cytotoxic potential against cancer cell lines (overall statement); type: cell-based; settings: all cancer cells tested
Method: as §1, §2

VERO cells = experiment: SRB cytotoxicity assay, VERO; type: cell-based, monkey
Method: as §1

[2] = SRB cytotoxicity assay, VERO; type: cell-based, monkey; settings: monkey, VERO cells; 10 μM, 48 hours, SRB assay; read-out: In vitro cytotoxicity at 10 μM dose, VERO (percent growth inhibition)
Method: as §1

MDAMB231 cells = experiment: SRB cytotoxicity assay, MDAMB231; type: cell-based; settings: Homo sapiens, MDA-MB-231, Breast
Method: as §1, §2

HCC1806 cells = experiment: SRB cytotoxicity assay, HCC1806; type: cell-based; settings: Homo sapiens, Breast
Method: as §1, §2

SW-620 xenograft = experiment: Cisplatin resistant SW-620 xenograft model; type: in vivo, nude Crl: CD1-Foxnlnu mice; settings: FIG. 7
Excerpt: All the animals were maintained in a pathogen-free facility under a day—night cycle.

PARP, Caspase-3, cIAP-1 = experiment: Apoptosis antibody array / apoptotic markers; type: cell-based; settings: treated cells vs control, FIG. 2 right and FIG. 3
Method: Apoptosis array was performed by using Proteome Profiler Human Apoptosis Array Kit (ARY009) from R&D Systems following the manufacturer's instructions. The detailed assay procedure was followed. The images were captured by the gel documentation system (Bio-Rad chemidoc XRS plus), while ImageJ software (NIH) was used for analysis and quantification. Plotly software was used for heatmap generation (Montreal, Canada).

PC-3 cells = experiment: SRB cytotoxicity assay, PC-3; type: cell-based; settings: Homo sapiens, Prostrate
Method: as §1, §2

Annexin-V positive cells = experiment: Annexin-V apoptosis analysis; type: cell-based; settings: FIG. 2, left
U937 cells = experiment: SRB cytotoxicity assay, U937; type: cell-based; settings: Homo sapiens, U-937, Lymphoma
Method: as §1, §2

B-16 cells = experiment: SRB cytotoxicity assay, B-16; type: cell-based; settings: B16, Melanoma (Mouse)
Method: as §1, §2

A-549 cells = experiment: SRB cytotoxicity assay, A-549; type: cell-based; settings: Homo sapiens, A549, Lung
Method: as §1, §2

K562 cells = experiment: SRB cytotoxicity assay, K562; type: cell-based; settings: Homo sapiens, Leukemia
Method: as §1, §2

SW 620 cells = experiment: SRB cytotoxicity assay, SW 620; type: cell-based; settings: Homo sapiens, SW-620
Method: as §1

In the case of `CC[C@H](C)[C@H](NC(=O)[C@@H]1CC[C@H](c2ccc(C)o2)N1C(=O)[C@@H](NC(=O)[C@H](C)NC)C(C)C)C(=O)NC(c1ccccc1)c1ccccc1` [Compound 6, (2S,5R)-N-((2S,3S)-1-(benzhydrylamino)-3-methyl-1-oxopentan-2-yl)-1-((S)-3-methyl-2-((S)-2-(methylamino)propanamido)butanoyl)-5-(5-methylfuran-2-yl)pyrrolidine-2-carboxamide], the IC50 (HEP-G2 cells) is reported as 7.3 µM, the IC50 (A172 cells) is reported as 6.88 µM and the “XIAP and cIAP1 protein expression in tumors” value [1] is reported as “reduced XIAP and cIAP1 protein expression”. The IC50 (PANC-1 cells) was 5.83 µM, the “Cytotoxic activity against cancer cells (in words)” value (cancer cell lines) was “potent cytotoxic activity” and the IC50 (VERO cells; Primates, Kidney (monkey), VERO) was greater than 10 µM. The “Toxicity against VERO cells (in words)” value (VERO cells; non-human VERO cells) was “limited or minimal toxicity”, the inhibition at 48 h, 10 μM [2] was 18.4 ± 2.1% and the IC50 (MDAMB231 cells) was 4.15 µM. For the same compound, the IC50 (HCC1806 cells) was 5.79 µM, the “In vivo anti tumor efficacy” value (SW-620 xenograft) was “potent anti tumor efficacy” and the “Hallmark apoptotic features (PARP, Caspase-3, cIAP-1)” value (PARP, Caspase-3, cIAP-1) was “cleavage of PARP and Caspase-3 and degradation of cIAP-1”. The IC50 (PC-3 cells) was 6.02 µM, the “Apoptosis (Annexin-V positive cells)” value (Annexin-V positive cells) was “promotes smac driven apoptotic features” and the IC50 (U937 cells) was 8.98 µM. For the same compound, the IC50 (B-16 cells) was 6.7 µM, the IC50 (A-549 cells) was greater than 10 µM and the IC50 (K562 cells) was 9.1 µM. The inhibition at 10 µM (SW 620 cells; 10 μM, 48 hours, SRB assay, read-out: In vitro cytotoxicity at 10 μM dose, SW 620 (percent growth inhibition)) was 59.27 ± 0.1% and the IC50 (SW 620 cells; Colon, SW620) was 4.31 µM.

— US20240083846A1, “SMAC MIMETICS FOR TREATMENT OF CANCER, PROCESS FOR PREPARATION AND PHARMACEUTICAL COMPOSITION THEREOF” (COUNCIL OF SCIENTIFIC & INDUSTRIAL RESEARCH, priority 2020, published 2024)
